Measurements published in US8143397B2 (Medichem S.A., priority 2006, dated 2012).

Tests used:
Tapped density = type: physicochemical; settings: after milling, sieving and blending
[1] = Particle size distribution (Malvern laser particle size analyser); type: physicochemical; settings: dispersed in 0.1% Tween 20 in DI water, sonicated 2 minutes
Description: vii. Particle Size Distribution
Particle size measurement was obtained using a Malvern particle size analyser equipped with a 2 milliwatt Helium/Neon laser and a Fourier Transform lens system. The sample was run using the […]. The sample unit was a MS1-Small Volume Sample Dispersion Unit stirred cell. The dispersant was DI water. The sample particle size distribution was assumed to follow a normal distribution.
Analysis model: polydisperse.
Setup presentation: standard wet (30HD)
1 ml of Tween 20 was diluted to 1000 ml with water (solution 0.1% of Tween 20 in DI water). Approximately 250 mg of sample was dispersed in 20 ml of the solution 0.1% of Tween 20 in DI water. This sample was sonicated for 2 minutes and delivered dropwise to the previously filled and background corrected measuring cell until the desired obscuration was reached.
This dispersion (the dispersion in the stirring measuring cell) was measured after stabilization of the obscuration.

Structure (SMILES) | Tapped Density (Tapped density) [g/mL] | Particle Size Distribution D(v, 0.1) [1] [μm] | Particle Size Distribution D(v, 0.5) [1] [μm] | Particle Size Distribution D(v, 0.9) [1] [μm] | Mean Diameter [1] [μm]
C[C@@H](c1ncncc1F)[C@](O)(Cn1cncn1)c1ccc(F)cc1F [Example 24, Voriconazole] | 0.82 | 35.9 | 147.6 | 350.0 | –
C[C@@H](c1ncncc1F)[C@](O)(Cn1cncn1)c1ccc(F)cc1F [Example 21, Voriconazole] | – | 5.3 | 16.7 | 34.1 | 18.3
C[C@@H](c1ncncc1F)[C@](O)(Cn1cncn1)c1ccc(F)cc1F [Example 22, Voriconazole] | – | 5.2 | 19.1 | 39.1 | 21.0
C[C@@H](c1ncncc1F)[C@](O)(Cn1cncn1)c1ccc(F)cc1F [Example 20, Voriconazole] | – | 4.2 | 14.9 | 34.1 | 17.5
C[C@@H](c1ncncc1F)[C@](O)(Cn1cncn1)c1ccc(F)cc1F [Example 25, Voriconazole] | – | 5.4 | 17.5 | 37.2 | 19.4
C[C@@H](c1ncncc1F)[C@](O)(Cn1cncn1)c1ccc(F)cc1F [Example 23, Voriconazole] | – | 5.2 | 17.9 | 37.5 | 19.8

Now from value to molecule:

Tapped Density (Tapped density) [g/mL] | Particle Size Distribution D(v, 0.1) [1] [μm] | Particle Size Distribution D(v, 0.5) [1] [μm] | Particle Size Distribution D(v, 0.9) [1] [μm] | Mean Diameter [1] [μm] | Structure (SMILES)
– | 36.9 | 102.4 | 220.0 | – | C[C@@H](c1ncncc1F)[C@](O)(Cn1cncn1)c1ccc(F)cc1F [Example 2, Voriconazole]
– | 5.7 | 20.8 | 43.4 | 23.3 | C[C@@H](c1ncncc1F)[C@](O)(Cn1cncn1)c1ccc(F)cc1F [Example 19, Voriconazole]
– | 4.5 | 16.9 | 37.4 | 18.7 | C[C@@H](c1ncncc1F)[C@](O)(Cn1cncn1)c1ccc(F)cc1F [Example 18, Voriconazole]
